This is an account of results in patent publication US20230399341A1, “7-PHENYL SUBSTITUTED 2-AMINOQUINAZOLINE INHIBITORS OF HPK1” (MERCK SHARP & DOHME LLC, priority 2020, published 2023).

For the experiment, the target named is T1, Human HPK1, catalytic domain (Homo sapiens, UniProt Q92918).
T1 sequence (Q92918 1-346): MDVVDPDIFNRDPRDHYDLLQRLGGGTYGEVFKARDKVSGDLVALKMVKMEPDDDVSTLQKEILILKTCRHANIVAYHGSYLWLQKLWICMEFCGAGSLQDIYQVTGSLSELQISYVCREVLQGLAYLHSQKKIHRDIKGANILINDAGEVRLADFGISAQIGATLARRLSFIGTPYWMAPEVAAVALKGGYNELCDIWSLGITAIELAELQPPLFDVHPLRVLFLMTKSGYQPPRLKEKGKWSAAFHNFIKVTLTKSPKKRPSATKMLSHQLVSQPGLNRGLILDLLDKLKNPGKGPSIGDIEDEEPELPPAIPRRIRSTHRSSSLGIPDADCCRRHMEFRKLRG
The experiment is described as follows: HPK1-SLP76 TR-FRET Assay. Type of experiment: biochemical. The settings on record: 75 pM HPK1, ATP 10 uM, SLP76 10 nM, 30 min pre-incubation, 60 min reaction. (In general: Time-resolved FRET reads energy transfer from a long-lived donor to a nearby acceptor.)

Regarding `COc1cc2c(cc1Nc1ncc3c(N)c(F)c(-c4cnc5c(c4C)NCCO5)cc3n1)CN(C)CC21CC1` [Compound 2-45, 6-fluoro-N~2~-(6′-methoxy-2′-methyl-2′,3′-dihydro-1′H-spiro[cyclopropane-1,4′-isoquinolin]-7′-yl)-7-(8-methyl-2,3-dihydro-1H-pyrido[2,3-b][1,4]oxazin-7-yl)quinazoline-2,5-diamine], the IC50 was determined as 0.163 nM. On to `Cc1ccc(C#N)cc1-c1cc2nc(Nc3ccc(CS(C)(=O)=O)cc3)ncc2c(N)c1F` [Compound 2-53, 3-[5-amino-6-fluoro-2-({4-[(methylsulfonyl)methyl]phenyl}amino)quinazolin-7-yl]-4-methylbenzonitrile], for which inhibition was half-maximal at 131 nM (IC50). For `CNS(=O)(=O)c1cccc(Nc2ncc3c(N)c(F)c(-c4cnc5c(c4C)NCCO5)cc3n2)c1` [Compound 2-34] the value was 0.118 nM. `CCn1cc(-c2ccc3cnc(Nc4cc5c(cc4OC)CCN(C)C5)nc3c2)cn1` [Compound 1-20, 7-(1-ethyl-1H-pyrazol-4-yl)-N-(6-methoxy-2-methyl-1,2,3,4-tetrahydroisoquinolin-7-yl)quinazolin-2-amine] returned an IC50 of 4.61 nM.

For `CNC(=O)C1CCc2cc(Nc3ncc4c(N)c(F)c(-c5cnc6c(c5C)NCCO6)cc4n3)ccc21` (stereo not shown) [Compound 2-188, 5-{[5-amino-6-fluoro-7-(8-methyl-2,3-dihydro-1H-pyrido[2,3-b][1,4]oxazin-7-yl)quinazolin-2-yl]amino}-N-methyl-2,3-dihydro-1H-indene-1-carboxamide], the midpoint of inhibition, the IC50, lay at 0.0806 nM.

`COc1cc2c(cc1Nc1ncc3ccc(N4CC(CN)OC4=O)cc3n1)CN(C)CC2` (racemic) [Compound 3-11, (S and R)-5-(aminomethyl)-3-{2-[(6-methoxy-2-methyl-1,2,3,4-tetrahydroisoquinolin-7-yl)amino]quinazolin-7-yl}-1,3-oxazolidin-2-one] returned an IC50 of 82.4 nM. For `CCS(=O)(=O)Cc1ccc(Nc2ncc3c(N)c(F)c(-c4cnc5c(c4C)NCCO5)c(Cl)c3n2)cc1` [Compound 2-140, 8-chloro-N~2~-{4-[(ethylsulfonyl)methyl]phenyl}-6-fluoro-7-(8-methyl-2,3-dihydro-1H-pyrido[2,3-b][1,4]oxazin-7-yl)quinazoline-2,5-diamine] the value was 0.121 nM. The compound `COc1cc2c(cc1Nc1ncc3ccc(N4CC5(CCNCC5)OC4=O)cc3n1)CN(C)CC2` [Compound 3-5, 3-{2-[(6-methoxy-2-methyl-1,2,3,4-tetrahydroisoquinolin-7-yl)amino]quinazolin-7-yl}-1-oxa-3,8-diazaspiro[4.5]decan-2-one] showed an IC50 of 205 nM. The compound `COc1cc2c(cc1Nc1ncc3ccc(-c4cnc5c(C#N)cnn5c4)cc3n1)CN(C)CC2` [Compound 1-22, 6-{2-[(6-methoxy-2-methyl-1,2,3,4-tetrahydroisoquinolin-7-yl)amino]quinazolin-7-yl}pyrazolo[1,5-a]pyrimidine-3-carbonitrile] showed an IC50 of 735 nM. To `Cc1c(-c2c(F)c(N)c3cnc(Nc4ccc5c(c4)CN(C(C)C)CC5)nc3c2Cl)cnc2c1NCCO2` [Compound 2-112, 8-chloro-6-fluoro-N2-(2-isopropyl-1,2,3,4-tetrahydroisoquinolin-7-yl)-7-(8-methyl-2,3-dihydro-1H-pyrido[2,3-b][1,4]oxazin-7-yl)quinazoline-2,5-diamine] belongs 0.816 nM. To `COc1cc2c(cc1Nc1ncc3ccc(N4CC5(CCOC5)OC4=O)cc3n1)CN(C)CC2` (racemic) [Compound 3-3, (S and R)-3-{2-[(6-methoxy-2-methyl-1,2,3,4-tetrahydroiso-quinolin-7-yl)amino]quinazolin-7-yl}-1,7-dioxa-3-azaspiro[4.4]-nonan-2-one] belongs 391 nM; to `Cc1ccncc1-c1cc2nc(Nc3ccc4c(c3)CN(C)CC4)ncc2c(N)c1F` [Compound 2-122, 6-fluoro-7-(4-methylpyridin-3-yl)-N~2~- (2-methyl-1,2,3,4-tetrahydroisoquinolin-7-yl)quinazoline-2,5-diamine], 0.22 nM; to `COc1cc2c(cc1Nc1ncc3ccc(N[C@@H]4COC[C@@H]4F)cc3n1)CN(C)CC2` [Compound 3-67, N~7~-[(3R,4R)-4-fluorooxolan-3-yl]-N~2~-(6-methoxy-2-meth-yl-1,2,3,4-tetrahydroisoquinolin-7-yl)quinazoline-2,7-diamine], 108 nM.

Regarding `COc1cc2c(cc1Nc1ncc3c(N)c(F)c(-c4cnc5c(c4C)NCCO5)cc3n1)C(C)N(C)CC2` (single isomer, unassigned) [Compound 2-35, (S or R)-6-fluoro-N^2-(6-methoxy-1,2-dimethyl-1,2,3,4-tetrahydroisoquinolin-7-yl)-7-(8-methyl-2,3-dihydro-1H-pyrido[2,3-b][14]oxazin-7-yl)quinazoline-2,5-diamine], the IC50 came to 0.152 nM. `CS(=O)(=O)Cc1ccc(Nc2ncc3c(N)c(F)c(-c4cnc5c(c4Cl)NCCO5)cc3n2)cc1` [Compound 2-123, 7-(8-chloro-2,3-dihydro-1H-pyrido[2,3-b][1,4]oxazin-7-yl)-6-fluoro-N2-(4-((methylsulfonyl)methyl)phenyl)quinazoline-2,5-diamine]: the half-maximal inhibitory concentration (IC50) was 0.037 nM.

Compound `COc1cc(C)ccc1Nc1ncc2c(N)c(F)c(-c3cnc4c(c3C)NCCO4)cc2n1` [Compound 2-177, 6-fluoro-N~2~-(2-methoxy-4-methylphenyl)-7-(8-methyl-2,3-dihydro-1H-pyrido[2,3-b][1,4]oxazin-7-yl)quinazoline-2,5-diamine] had an IC50 of 4.08 nM. To `Cc1c(-c2c(F)c(N)c3cnc(Nc4ccc5c(c4)CN(C)CC5)nc3c2Cl)cnc2c1NCCO2` [Compound 2-95, (+ or −)-8-chloro-6-fluoro-7-(8-methyl-2,3-dihydro-1H-pyrido[2,3-b][1,4]oxazin-7-yl)-N~2~- (2-methyl-1,2,3,4-tetrahydroisoquinolin-7-yl)quinazoline-2,5-diamine] belongs 0.0589 nM.

`COc1cc2c(cc1Nc1ncc3ccc(NCC4=NS(=O)(=O)c5cc(C)ccc5N4)cc3n1)CN(C)CC2` [Compound 3-18, 3-[({2-[(6-methoxy-2-methyl-1,2,3,4-tetrahydroisoquinolin-7-yl)amino]quinazolin-7-yl}-amino)methyl]-7-methyl-1lambda~6~,2,4-benzothia-diazine-1,1(4H)-dione] registered a half-maximal inhibitory concentration (IC50) of 204 nM.

Regarding `COc1cc2c(cc1Nc1ncc3ccc(-c4cncc(C#N)c4)cc3n1)CNCC2` [Compound 1-36, 5-{2-[(6-methoxy-1,2,3,4-tetrahydroisoquinolin-7-yl)amino]quinazolin-7-yl}pyridine-3-carbonitrile], 182 nM corresponded to half-maximal inhibition (IC50). For `COc1cncc(-c2ccc3cnc(Nc4cc5c(cc4OC)CCNC5)nc3c2)c1` [Compound 1-44, 7-(5-methoxypyridin-3-yl)-N-(6-methoxy-1,2,3,4-tetrahydroisoquinolin-7-yl)quinazolin-2-amine] the value was 9.45 nM; for `Cc1c(-c2c(F)c(N)c3cnc(Nc4ccc(CS(C)(=O)=O)cc4F)nc3c2Cl)cnc2c1NCCO2` [Compound 2-135, 8-chloro-6-fluoro-N2-(2-fluoro-4-((methylsulfonyl)methyl)phenyl)-7-(8-methyl-2,3-dihydro-1H-pyrido[2,3-b][1,4]oxazin-7-yl)quinazoline-2,5-diamine], 72.5 nM. To `Cc1c(-c2cc3nc(Nc4ccc(CS(=O)(=O)C(C)C)cc4)ncc3c(N)c2F)cnc2c1NCCO2` [Compound 2-157, 6-fluoro-7-(8-methyl-2,3-dihydro-1H-pyrido[2,3-b][1,4]oxazin-7-yl)-N~2~- (4-{[(propan-2-yl)sulfonyl]methyl}phenyl) quinazoline-2,5-diamine] belongs 0.0689 nM; to `COc1cc2c(cc1Nc1ncc3ccc(-c4cccc(N)c4C)cc3n1)CNCC2` [Compound 1-31, 7-(3-amino-2-methylphenyl)-N-(6-methoxy-1,2,3,4-tetrahydroisoquinolin-7-yl)quinazolin-2-amine], 204 nM. With `COc1cc2c(cc1Nc1ncc3ccc(N4CCN(C5CC5)C(=O)C4)cc3n1)CN(C)CC2` [Compound 3-73, 1-cyclopropyl-4-{2-[(6-methoxy-2-methyl-1,2,3,4-tetrahydroiso-quinolin-7-yl)amino]quinazolin-7-yl}piperazin-2-one], half-maximal inhibition (IC50) was put at 719 nM.

In turn, `COc1cc2c(cc1Nc1ncc3ccc(N4CCCC(CN5CCCC5=O)C4)cc3n1)CN(C)CC2` (racemic) [Compound 3-20, (S and R)-1-1(1-12-[(6-methoxy-2-methyl-1,2,3,4-tetrahydroiso-quinolin-7-yl)amino]quinazolin-7-yl}piperidin-3-yl)methyl]-pyrrolidin-2-one] registered an IC50 of 771 nM. `COc1cc2c(cc1Nc1ncc3ccc(NCC4CC(=O)N(C)C4)cc3n1)CN(C)CC2` (racemic) [Compound 3-59, (S and R)-4-[({2-[(6-methoxy-2-methyl-1,2,3,4-tetrahydroiso-quinolin-7-yl)amino]quinazolin-7-yl}amino)methyl]-1-methyl-pyrrolidin-2-one] yielded a half-maximal inhibitory concentration (IC50) of 365 nM. `COc1nc(C2(C#N)CC2)ccc1Nc1ncc2c(N)c(F)c(-c3cnc4c(c3C)NCCO4)c(Cl)c2n1` [Compound 2-182, (+ or −)-1-(5-{[5-amino-8-chloro-6-fluoro-7-(8-methyl-2,3-dihydro-1H-pyrido[2,3-b][1,4]oxazin-7-yl)quinazolin-2-yl]amino}-6-methoxypyridin-2-yl)cyclopropane-1-carbonitrile]: the IC50 was determined as 32.7 nM. Consider `COc1cc2c(cc1Nc1ncc3ccc(Oc4ccc([C@H](C)N)cc4)cc3n1)CN(C)CC2` [Compound 4-8, 7-{4-[(1S)-1-aminoethyl]-phenoxy}-N-(6-methoxy-2-methyl-1,2,3,4-tetrahydro-isoquinolin-7-yl)quinazolin-2-amine], for which 2.37 nM corresponded to half-maximal inhibition (IC50).

Usually IC50 stands for the concentration that gives 50% inhibition.
